Measured values taken from patent publication US20200318165A1, “Rapid Identification of Microorganisms” (Board of Regents of the Nevada System of Higher Education, …, priority 2015, published 2020).

How the values were obtained:
[1] = Fluorescence of the probe itself without bacteria; format: physicochemical; details: excitation of 568 nm laser
Excerpt: Methods were developed to distinguish different species of live bacteria by functionalization of C60 with RNA oligonucleotides hybridized with reporter compounds. The signature RNA oligonucleotides are designed in accordance with the signature information on 16s ribosome RNA, which is unique to each species (Reischl et al., Clin Chem 52, 1985-1987 (2006) and Dresios et al., Journal of molecular biology 345, 681-693 (2005), each of which is hereby incorporated by reference in its entirety). The strategy to recognize a certain bacteria is shown in FIGS. 20A-20C and operates as follows: • (1) C60 molecules were functionalized with signature RNA oligonucleotides containing signature information (e.g., calling card) of a certain species. The Signature RNA oligonucleotides were typically screened through bioinformatics analysis. • (2) A reporter sequence, which is conjugated to a fluorophore, was hybridized with the signature sequence. The fluorophore was silent while hybridized but fluoresced once released. • (3) The C60 complex penetrated the bacteria and released the reporter if the bacteria contained ribosomal signature information that matches the signature RNA oligonucleotide on the C60 complex. The released reporter sequence emitted a fluorescent signal and was detected while free in the cytoplasm. […]

B. subtilis = test: Cellular uptake monitored by Transmission Electron Microscopy; format: cell-based; details: 5 μg/mL, 30 min, FIG. 3B
Protocol: (§1) TEM was used to examine whether the retention of C60-pyrrolidine tris acid was localized within the cytosol. Microorganisms were incubated with C60-pyrrolidine tris acid (5 μg/mL) for 30 min. Cells were pelleted by centrifugation at 5,000 rcf (5 min) and washed 5 times with DI H2O. Microorganisms were fixed in 2.5% glutaraldehyde/PBS solution for 30 min. The cells were then pelleted by centrifugation at 5,000 rcf for 5 min. The cell pellet was placed in fresh 2.5% glutaraldehyde/PBS solution at 4° C. overnight. Next, cell pellets were dehydrated by a series of acetone treatments (30% for 15 min, 50% for 15 min, 70% for 15 min, 90% for 15 min and a final treatment at 100% for 30 min, and repeated 3 times), embedded in resin (2:1 mix of propylene oxide:resin for 1 hour, 1:1 mix of propylene oxide:resin for 1 hour, 1:2 mix of propylene oxide: resin for 1 hour, 100% resin overnight, and change to fresh resin 1 h), incubated for 24 h at 37° C., sectioned (60 nm in thickness), and imaged using a Tecnai 12 TEM.
(§2) To test the hypothesis that functionalized C60-pyrrolidine tris acid internalizes within the cell, microorganisms were imaged with TEM. Both E. coli and B. subtilis were incubated with C60-pyrrolidine tris acid, washed to remove excess compound, sectioned into slices of 60 nm thickness, and then imaged by TEM. […]

E. coli = test: as above; format: cell-based; details: 5 μg/mL, 30 min, FIG. 3A
Protocol: as §1, §2

Q: What does the source list for C60-pyrrolidine tris acid?
A: Autofluorescence [1]: no autofluorescence; Localization in sectioned cells (TEM) (B. subtilis): localizes within the cell; Localization in sectioned cells (TEM) (E. coli): localizes within the cell
